Series [1] has as its target T1, protease-activated receptor-2 (PAR2) (Homo sapiens, UniProt P55085).
T1 construct: a human bronchial epithelial cell line that naturally expressed PAR2; endogenous in cells; host or cells: 16HBE14o- human bronchial epithelial cells
T1 sequence (P55085 26-397): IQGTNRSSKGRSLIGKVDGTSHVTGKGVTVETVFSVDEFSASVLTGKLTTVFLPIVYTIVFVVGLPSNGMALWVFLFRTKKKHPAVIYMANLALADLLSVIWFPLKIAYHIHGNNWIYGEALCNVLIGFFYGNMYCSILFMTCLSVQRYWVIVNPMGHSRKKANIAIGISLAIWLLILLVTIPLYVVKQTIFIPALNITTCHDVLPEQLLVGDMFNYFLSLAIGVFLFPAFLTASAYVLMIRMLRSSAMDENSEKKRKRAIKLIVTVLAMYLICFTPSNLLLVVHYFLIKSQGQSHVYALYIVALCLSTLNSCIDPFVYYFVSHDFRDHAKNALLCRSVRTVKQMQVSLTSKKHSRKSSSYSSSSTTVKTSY
Put plainly: In Cell Western of pERK 1/2 (β-arrestin/MAPK signaling). The settings on record: 16HBE14o- cells; ICW of pERK 1/2. The series is classed as cell-based. Here is the method:
(§1) Compound I-1 (labelled as “C I-1” in FIGS. 1A-1D) was evaluated for its ability to antagonize protease-activated receptor-2 (PAR2) in several cellular assays using a human bronchial epithelial cell line that naturally expressed PAR2 (16HBE14o− cells; see FIG. 1A-1D).
(§2) It is known that two primary signaling outcomes of PAR2 activation are the initiation of Gq/Ca^2+ and β-arrestin/MAPK signaling. To determine whether the observed in vitro physiologic antagonism represented partial antagonism or intracellular signaling dependent antagonism, digital imaging microscopy was used to assay intracellular Ca^2+ changes ([Ca^2+ ]i; […]) as a measure of Gq/Ca^2+ signaling and an In Cell Western approach for measuring phosphorylation of extracellular regulated kinase ½ (ICW of pERK ½; see FIG. 1D) as an assay for β-arrestin/MAPK signaling. […] It is concluded that Compound I-1 is a β-arrestin/MAPK biased PAR2 antagonist.

Series [2] relates to airway hyperresponsiveness induced by Alternaria alternata. Put plainly: Alternaria alternata-induced asthma model, total airway resistance to methacholine (FLEXIVENT). The series is classed as in vivo, mouse. The settings on record: mice, Alternaria alternata intranasally three times over 8 days, with Compound I-1. Here is the method: Alternaria alternata is a fungal allergen that activates PAR2 in the airways to promote inflammation and bronchoconstriction. Compound I-1 was evaluated in vivo to assess whether it can be used to treat airway hyperresponsiveness induced by Alternaria alternata. FIG. 3 summarizes the results for this in vivo study.
Alternaria alternata or saline (A data points in FIG. 3) were administered intranasally in a mouse asthma model three times over an 8 day period, in the presence (Q data points in FIG. 3) or absence (o data points in FIG. 3) of Compound I-1. Total airway resistance in response to increasing amounts of methacholine was monitored using the FLEXIVENT® (Scireq, Quebec, Canada) system.

In series [3] the target is T1, protease-activated receptor-2 (PAR2). Put plainly: Digital imaging microscopy of intracellular Ca2+ changes (Gq/Ca2+ signaling). In kind it is cell-based. The settings on record: 16HBE14o- cells; [Ca2+]i by digital imaging microscopy. Here is the method:
as §1, §2

Series [4] can be described thus: In vivo pharmacokinetics (plasma concentration by LC-MS/MS, non-compartmental analysis). The settings on record: mouse; for concentration at 24 h: read-out: Clast (24 h); for Cmax: read-out: Co/Cmax. Here is the method:
Compound I-1 was evaluated for its plasma stability and oral bioavailability. Mice were fasted overnight before dosing, with water provided ad libitum throughout the study. Three animals are dosed via gavage needle for oral administration at 10 mg/kg (10 mL/kg), via tail vein injection for intravenous administration at […], and via injection in the lower right quadrant of the abdomen for intraperitoneal injections at 10 mg/kg (10 mL/kg). Blood samples (25-30 μL per sample) were taken via saphenous or submandibular vein at 5, 15, 30 min, and 1, 2, 4, 6, 8, 24 h post dose and drug concentration determined by LC-MS/MS. Plasma concentrations were then graphed vs time and pharmacokinetic parameters (terminal half life, t1/2; initial plasma concentration, Co; area under the curve (AUC); volume of distribution at steady-state. Vss; total plasma clearance CLp; mean residence time, MRT; maximum plasma concentration Cmax; time to reach Cmax, tmax; and bioavailability, F) were determined using non-compartmental analysis.

For series [5], the system named is stress-induced migraine-like pain. Kind of series: Stress-induced migraine model, facial withdrawal response after SNP. In kind it is in vivo, mouse. The settings on record: mice, restraint stress for 3 days, 14-day recovery, then SNP. Here is the method: Migraine headaches are characterized by sensitivity of pain-sensing neurons in the dura mater to innocuous stimuli, e.g., the nitric oxide donor, sodium nitroprusside (SNP). Compound I-1 was evaluated in vivo using a mouse migraine model to assess whether it can be used to treat stress-induced migraine-like pain. FIG. 2 summarizes the results for this in vivo study.
Mice were subjected to restraint stress for 3 days (□ and ⋄ data points in FIG. 2) or left unrestrained (∘ and Δ data points in FIG. 2), resulting in a significant facial withdrawal response up to 3 days post-stress.

In series [6] the target is T1, protease-activated receptor-2 (PAR2). Put plainly: xCELLigence real time cellular analysis (RTCA) of PAR2 antagonism. In kind it is cell-based. The settings on record: 16HBE14o- cells; 5 min pre-incubation with 300 nM-10 μM compound, then 300 nM 2AT or 30 nM trypsin; high concentrations. Here is the method: as §1
In the first assay to detect an in vitro physiological response, the xCELLigence real time cellular analysis (RTCA) was used.
Following overnight growth, varying concentrations of Compound I-1 was added to individual wells (in quadruplicate) in final concentrations of 300 nM, 1 μM, 3 μM and 10 μM. […] The upward deflection and recovery of the Cell Index shown in response to control 300 nM 2AT (FIG. 1A) or 30 nM (FIG. 1B) represents a typical EC50 response.

SMILES strings stand for the structures. Like-named read-outs stand apart in the source and are kept apart here.

As usually defined, the AUC is concentration integrated over time. Read a high AUC as more exposure. What is called Tmax is the time at which the peak concentration occurs. As a reminder, the half-life is the time needed for the level to fall by half in the phase considered. Turning to `CC(C)C[C@@H]1C(=O)N2C(CN(CC3CCNCC3)C(=O)[C@@H]2CC(C)C)N1C(=O)c1ccco1` (stereo partly drawn) [Compound I-1, 4-(((2R,5S)-1-(furan-2-carbonyl)-2,5-diisobutyl-3,6-dioxohexahydroimidazolo [1,2-a]pyrazin-7(1H)-yl)methyl)piperidin-1-ium chloride], in series [1], the “Antagonism of the β-arrestin/MAPK-signaling pathway” value is “significant antagonism”. For the same molecule, the “Total airway resistance in response to increasing methacholine” value in series [2] is “has promise as a therapeutic for reducing allergen-induced asthma attacks”. The “Antagonism at the Gq/Ca2+ signaling pathway” value in series [3] is “not observed”. The same molecule registered a F in series [4] (IP, 10 mg/kG) of 89.8%. The F in series [4] (Oral, 10 mg/kG) is given as 84.7%. In series [4] (plasma, IP, 10 mg/kG), the AUC stood at 2670 ng·h/mL, the Tmax is 0.25 h, the half-life was 7.97 h and the concentration at 24 h was found to be 12.9 ng/mL. Moreover, in series [4] (plasma, IP, 10 mg/kG), the Cmax amounted to 689 ng/mL. Besides, in series [4] (plasma, IV, 2 mg/kG), the AUC is 595 ng·h/mL, the half-life was 7.9 h, the concentration at 24 h was 1.15 ng/mL and the Cmax is 1330 ng/mL. Further, in series [4] (plasma, IV, 2 mg/kG, read-out: CLp), the clearance was found to be 56.6 mL/min/kg. The Vd in series [4] (plasma, IV, 2 mg/kG, read-out: Vss) amounted to 8.29 L/kg. In series [4] (plasma, Oral, 10 mg/kG), the AUC turned out to be 2520 ng·h/mL, the Tmax is 0.5 h, the half-life is 7.45 h and the concentration at 24 h worked out at 11.4 ng/mL. For the same molecule, the Cmax in series [4] (plasma, Oral, 10 mg/kG) was 632 ng/mL. For the same molecule, the “Facial withdrawal response after SNP” value in series [5] is listed as “eliminated”. Besides, in series [6], the “Cell Index response to PAR2 activation (antagonism)” value was “reduced the response”.

Source of the values: US20260184714A1, “SMALL MOLECULE MODULATORS OF PAR2 AND USES THEREOF” (PARMEDICS, INC., priority 2022, published 2026).
